Assay results published in US20220288065A1, “MONOCYCLIC AGONISTS OF STIMULATOR OF INTERFERON GENES STING” (The Scripps Research Institute, priority 2019, published 2022).

tested on: THP-1 Lucia ISG cells; assay: ISG-LUC activation assay (ISRE-luciferase assay); assay type: cell-based; settings: Homo sapiens, THP1-Lucia ISG, activity score based upon potency and efficacy data, 24 hours
From the text: We have established a robust platform for identifying non-nucleotide small molecule STING agonists. This has been established using a primary assay involving a human THP-1 cell line carrying an IRF-inducible reporter with 5 copies of the IFN signaling response element. Counter screens, involving alternative reporter constructs, rodent cell-based assays, as well as cGAS and STING knock-out cell lines, are used to eliminate luciferase artifacts and ensure human-rodent cross species reactivity, as well as pathway selectivity. Biochemical assays, involving cGAS enzymatic activity and STING protein binding assays, are used to identify the specific target of identified hits.
Tissue culture. Wild-type (cat. no. thpl-isg) and STING KO (cat. no. thpd-kostg) THP-1-Lucia ISG cells were purchased from Invivogen and maintained in growth media consisting of RPMI 1640, 2 mM L-glutamine, 25 mM HEPES, 10% heat-inactivated fetal bovine serum (FBS), 1,000 units/ml penicillin, 1,000 μg/ml streptomycin, 0.25 μg/ml Amphotericin B, and 100 μg/ml zeocin unless otherwise stated.
ISRE-luciferase assay. THP-1 Lucia ISG cells were resuspended in low-serum growth media (2% FBS) at a density of 5×10^5 cells/ml and treated with test article or vehicle (DMSO). 50 μL of cells were seeded into each well of a 384-well white greiner plates and incubated for 24 hours. To evaluate expression of the luciferase reporter, 30 μl of Quanti-luc (Invivogen) detection reagent was added to each well and luminescence was read using an Envision plate reader (Perkin Elmer) set with an integration time of 0.1 seconds.

Compound	EC50 [nM]
C#Cc1cc(NC(=O)c2ccc(-n3ccnc3)nn2)c(C(=O)OC(C)C)cc1F [Compound 96]	> 1000
C#Cc1cc(NC(=O)c2ccc(-n3ccnc3)nn2)c(C(=O)OC(C)C)nc1Cl [Compound 97]	< 900
C#Cc1cc(NC(=O)c2ccc(-n3ccnc3)nn2)c(C(=O)OCCN2CCOCC2)nc1Cl [Compound 98]	< 900
N#Cc1cc(C(=O)O)c(NC(=O)c2ccc(-n3ccnc3)nn2)cc1Cl [Compound 99]	< 3000
C#Cc1cc(NC(=O)c2ccc(-n3ccnc3)nn2)c(C(=O)O)cc1C#N [Compound 100]	< 3000
C/C=C/c1cc(NC(=O)c2ccc(-n3ccnc3)nn2)c(C(=O)O)nc1Cl [Compound 101]	< 900
C#Cc1cc(NC(=O)c2ccc(-n3ccnc3)nn2)c(C(=O)OC(C)OC(=O)OCC)nc1Cl (stereo not shown) [Compound 102]	< 900
C#Cc1cc(NC(=O)c2ccc(-n3ccnc3)nn2)c(C(=O)OCCN2CCOCC2)cc1F [Compound 103]	< 900
CC#Cc1cc(NC(=O)c2ccc(-n3ccnc3)nn2)c(C(=O)O)nc1Cl [Compound 104]	< 900
C#Cc1cc(NC(=O)c2ccc(-n3ccnc3)nn2)c(C(=O)NCCO)nc1Cl [Compound 105]	> 1000
C#Cc1cc(NC(=O)c2ccc(-n3ccnc3)nn2)c(C(=O)NCCO)cc1F [Compound 106]	> 20000
C#Cc1cc(NC(=O)c2ccc(-n3ccnc3)nn2)c(C(=O)OC)nc1C#N [Compound 107]	< 900
C#Cc1cc(NC(=O)c2ncc(-c3cn[nH]c3)cn2)c(C(=O)O)cc1F [Compound 108]	> 20000
